Measurements as given in patent US20110039721A1, “METHOD FOR PREDICTION ABOUT CARCINOGENICITY OF SUBSTANCE IN RODENT” (Chemicals Evaluation and Research Institute, priority 2007, published 2011).

Key:
rodent = details: in vivo; cited from earlier work
liver = details: in vivo; cited from earlier work
[1] = test system: mRNA expressed from the genes (A) to (D) in rat liver; test: Behavior of genes (mRNA expression level, oligo-DNA microarray) in rat liver after 28-day oral administration; type: in vivo; details: for Behavior of gene caused by administration of chemical substance, Gene No. 154 / Behavior of gene caused by administration of chemical substance, Gene No. 533 / Behavior of gene caused by administration of chemical substance, Gene No. 725 / Behavior of gene caused by administration of chemical substance, Gene No. 813 / Behavior of gene caused by administration of chemical substance, Gene No. 893 / Behavior of gene caused by administration of chemical substance, Gene No. 1119 / Behavior of gene caused by administration of chemical substance, Gene No. 1131 / Behavior of gene caused by administration of chemical substance, Gene No. 1163 / Behavior of gene caused by administration of chemical substance, Gene No. 1334 / Behavior of gene caused by administration of chemical substance, Gene No. 1494 / Behavior of gene caused by administration of chemical substance, Gene No. 1562 / Behavior of gene caused by administration of chemical substance, Gene No. 1741 / Behavior of gene caused by administration of chemical substance, Gene No. 1993 / Behavior of gene caused by administration of chemical substance, Gene No. 2026 / Behavior of gene caused by administration of chemical substance, Gene No. 2045 / Behavior of gene caused by administration of chemical substance, Gene No. 2203 / Behavior of gene caused by administration of chemical substance, Gene No. 2494 / Behavior of gene caused by administration of chemical substance, Gene No. 2546 / Behavior of gene caused by administration of chemical substance, Gene No. 3776 / Behavior of gene caused by administration of chemical substance, Gene No. 3929 / Behavior of gene caused by administration of chemical substance, Gene No. 4095 / Behavior of gene caused by administration of chemical substance, Gene No. 4218 / Behavior of gene caused by administration of chemical substance, Gene No. 4846 / Behavior of gene caused by administration of chemical substance, Gene No. 4973 / Behavior of gene caused by administration of chemical substance, Gene No. 5600 / Behavior of gene caused by administration of chemical substance, Gene No. 5634 / Behavior of gene caused by administration of chemical substance, Gene No. 5726 / Behavior of gene caused by administration of chemical substance, Gene No. 5878 / Behavior of gene caused by administration of chemical substance, Gene No. 6026 / Behavior of gene caused by administration of chemical substance, Gene No. 6182 / Behavior of gene caused by administration of chemical substance, Gene No. 6303 / Behavior of gene caused by administration of chemical substance, Gene No. 6620 / Behavior of gene caused by administration of chemical substance, Gene No. 6742: rat, in vivo
In short: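 Oral gavage, once daily × 28 days; male F344 SPF rats, 5 wk, n=4/group; vehicle controls given equal solvent volume. Liver excised day 28, total RNA purified. Significance: ≥1.5× or ≤1/1.5 of vehicle, direction concordant with other carcinogens.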

O=C1N=C([O-])NC1(c1ccccc1)c1ccccc1.[Na+] [TS069, Phenytoin Na]
Carcinogenicity (rodent): C+ | Liver carcinogenicity (liver): Cr− | Behavior of gene caused by administration of chemical substance, Gene No. 154 [1]: + | Behavior of gene caused by administration of chemical substance, Gene No. 533 [1]: − | Behavior of gene caused by administration of chemical substance, Gene No. 725 [1]: + | Behavior of gene caused by administration of chemical substance, Gene No. 813 [1]: − | Behavior of gene caused by administration of chemical substance, Gene No. 893 [1]: − | Behavior of gene caused by administration of chemical substance, Gene No. 1119 [1]: − | Behavior of gene caused by administration of chemical substance, Gene No. 1131 [1]: − | Behavior of gene caused by administration of chemical substance, Gene No. 1163 [1]: − | Behavior of gene caused by administration of chemical substance, Gene No. 1334 [1]: − | Behavior of gene caused by administration of chemical substance, Gene No. 1494 [1]: + | Behavior of gene caused by administration of chemical substance, Gene No. 1562 [1]: − | Behavior of gene caused by administration of chemical substance, Gene No. 1741 [1]: + | Behavior of gene caused by administration of chemical substance, Gene No. 1993 [1]: − | Behavior of gene caused by administration of chemical substance, Gene No. 2026 [1]: − | Behavior of gene caused by administration of chemical substance, Gene No. 2045 [1]: + | Behavior of gene caused by administration of chemical substance, Gene No. 2203 [1]: + | Behavior of gene caused by administration of chemical substance, Gene No. 2494 [1]: − | Behavior of gene caused by administration of chemical substance, Gene No. 2546 [1]: − | Behavior of gene caused by administration of chemical substance, Gene No. 3776 [1]: − | Behavior of gene caused by administration of chemical substance, Gene No. 3929 [1]: + | Behavior of gene caused by administration of chemical substance, Gene No. 4095 [1]: + | Behavior of gene caused by administration of chemical substance, Gene No. 4218 [1]: − | Behavior of gene caused by administration of chemical substance, Gene No. 4846 [1]: − | Behavior of gene caused by administration of chemical substance, Gene No. 4973 [1]: + | Behavior of gene caused by administration of chemical substance, Gene No. 5600 [1]: − | Behavior of gene caused by administration of chemical substance, Gene No. 5634 [1]: + | Behavior of gene caused by administration of chemical substance, Gene No. 5726 [1]: − | Behavior of gene caused by administration of chemical substance, Gene No. 5878 [1]: − | Behavior of gene caused by administration of chemical substance, Gene No. 6026 [1]: − | Behavior of gene caused by administration of chemical substance, Gene No. 6182 [1]: + | Behavior of gene caused by administration of chemical substance, Gene No. 6303 [1]: − | Behavior of gene caused by administration of chemical substance, Gene No. 6620 [1]: − | Behavior of gene caused by administration of chemical substance, Gene No. 6742 [1]: −

CC(=O)Nc1ccc(C(=O)CCl)cc1 [TS072, 4-(Chloroacetyl)acetanilide]
Carcinogenicity (rodent): C− | Liver carcinogenicity (liver): Cr− | Behavior of gene caused by administration of chemical substance, Gene No. 154 [1]: − | Behavior of gene caused by administration of chemical substance, Gene No. 533 [1]: + | Behavior of gene caused by administration of chemical substance, Gene No. 725 [1]: + | Behavior of gene caused by administration of chemical substance, Gene No. 813 [1]: − | Behavior of gene caused by administration of chemical substance, Gene No. 893 [1]: − | Behavior of gene caused by administration of chemical substance, Gene No. 1119 [1]: − | Behavior of gene caused by administration of chemical substance, Gene No. 1131 [1]: − | Behavior of gene caused by administration of chemical substance, Gene No. 1163 [1]: + | Behavior of gene caused by administration of chemical substance, Gene No. 1334 [1]: − | Behavior of gene caused by administration of chemical substance, Gene No. 1494 [1]: + | Behavior of gene caused by administration of chemical substance, Gene No. 1562 [1]: − | Behavior of gene caused by administration of chemical substance, Gene No. 1741 [1]: − | Behavior of gene caused by administration of chemical substance, Gene No. 1993 [1]: − | Behavior of gene caused by administration of chemical substance, Gene No. 2026 [1]: + | Behavior of gene caused by administration of chemical substance, Gene No. 2045 [1]: + | Behavior of gene caused by administration of chemical substance, Gene No. 2203 [1]: + | Behavior of gene caused by administration of chemical substance, Gene No. 2494 [1]: − | Behavior of gene caused by administration of chemical substance, Gene No. 2546 [1]: − | Behavior of gene caused by administration of chemical substance, Gene No. 3776 [1]: + | Behavior of gene caused by administration of chemical substance, Gene No. 3929 [1]: − | Behavior of gene caused by administration of chemical substance, Gene No. 4095 [1]: − | Behavior of gene caused by administration of chemical substance, Gene No. 4218 [1]: + | Behavior of gene caused by administration of chemical substance, Gene No. 4846 [1]: + | Behavior of gene caused by administration of chemical substance, Gene No. 4973 [1]: + | Behavior of gene caused by administration of chemical substance, Gene No. 5600 [1]: + | Behavior of gene caused by administration of chemical substance, Gene No. 5634 [1]: − | Behavior of gene caused by administration of chemical substance, Gene No. 5726 [1]: − | Behavior of gene caused by administration of chemical substance, Gene No. 5878 [1]: − | Behavior of gene caused by administration of chemical substance, Gene No. 6026 [1]: − | Behavior of gene caused by administration of chemical substance, Gene No. 6182 [1]: + | Behavior of gene caused by administration of chemical substance, Gene No. 6303 [1]: − | Behavior of gene caused by administration of chemical substance, Gene No. 6620 [1]: − | Behavior of gene caused by administration of chemical substance, Gene No. 6742 [1]: −

Nc1ccc(N=Nc2ccccc2)cc1 [TS075, 4-Aminoazobenzene]
Carcinogenicity (rodent): C+ | Liver carcinogenicity (liver): Cr+ | Behavior of gene caused by administration of chemical substance ([1]; Gene No. 154, Rn.185941, group (C)): − | Behavior of gene caused by administration of chemical substance ([1]; Gene No. 533, Rn.106184, group (C)): − | Behavior of gene caused by administration of chemical substance ([1]; Gene No. 725, Rn.108075, group (C)): − | Behavior of gene caused by administration of chemical substance ([1]; Gene No. 813, Rn.201760, group (C)): − | Behavior of gene caused by administration of chemical substance ([1]; Gene No. 893, Rn.164817, group (C)): + | Behavior of gene caused by administration of chemical substance ([1]; Gene No. 1119, Rn.9757, group (C)): − | Behavior of gene caused by administration of chemical substance ([1]; Gene No. 1131, Rn.144946, group (C)): − | Behavior of gene caused by administration of chemical substance ([1]; Gene No. 1163, Rn.11766, group (C)): + | Behavior of gene caused by administration of chemical substance ([1]; Gene No. 1334, Rn.120914, group (C)): − | Behavior of gene caused by administration of chemical substance ([1]; Gene No. 1494, Rn.1430, group (B)): − | Behavior of gene caused by administration of chemical substance ([1]; Gene No. 1562, Rn.14744, group (C)): − | Behavior of gene caused by administration of chemical substance ([1]; Gene No. 1741, Rn.1647, group (C)): − | Behavior of gene caused by administration of chemical substance ([1]; Gene No. 1993, Rn.18728, group (C)): + | Behavior of gene caused by administration of chemical substance ([1]; Gene No. 2026, Rn.167075, group (A)): − | Behavior of gene caused by administration of chemical substance ([1]; Gene No. 2045, Rn.19329, group (B)): − | Behavior of gene caused by administration of chemical substance ([1]; Gene No. 2203, Rn.21240, group (B)): + | Behavior of gene caused by administration of chemical substance ([1]; Gene No. 2494, Rn.23969, group (C)): − | Behavior of gene caused by administration of chemical substance ([1]; Gene No. 2546, Rn.24561, group (C)): + | Behavior of gene caused by administration of chemical substance ([1]; Gene No. 3776, Rn.43232, group (C)): − | Behavior of gene caused by administration of chemical substance ([1]; Gene No. 3929, Rn.4620, group (C)): + | Behavior of gene caused by administration of chemical substance ([1]; Gene No. 4095, Rn.119024, group (C)): + | Behavior of gene caused by administration of chemical substance ([1]; Gene No. 4218, Rn.167075, group (A)): − | Behavior of gene caused by administration of chemical substance ([1]; Gene No. 4846, Rn.144554, group (A)): − | Behavior of gene caused by administration of chemical substance ([1]; Gene No. 4973, Rn.118529, group (C)): + | Behavior of gene caused by administration of chemical substance ([1]; Gene No. 5600, Rn.9836, group (A)): − | Behavior of gene caused by administration of chemical substance ([1]; Gene No. 5634, Rn.9862, group (C)): − | Behavior of gene caused by administration of chemical substance ([1]; Gene No. 5726, Rn.9939, group (D)): − | Behavior of gene caused by administration of chemical substance ([1]; Gene No. 5878, Rn.143213, group (C)): − | Behavior of gene caused by administration of chemical substance ([1]; Gene No. 6026, Rn.167685, group (C)): − | Behavior of gene caused by administration of chemical substance ([1]; Gene No. 6182, Rn.5834, group (A)): − | Behavior of gene caused by administration of chemical substance ([1]; Gene No. 6303, Rn.123063, group (C)): − | Behavior of gene caused by administration of chemical substance ([1]; Gene No. 6620, Rn.120914, group (C)): − | Behavior of gene caused by administration of chemical substance ([1]; Gene No. 6742, Rn.9779, group (C)): −
